Measured values from article PMC9098913, “In vitro reconstitution of Escherichia coli divisome activation” (Nature Communications, 2022).
Where two headings read alike, the source gives them in different places.

Columns and labels:
FtsA/Z co-filaments = biological target: T1, FtsA/Z co-filaments (Escherichia coli, UniProt P0A9A6+P0ABH0, R286W); format: biochemical, E. coli; conditions: all concentrations of FtsA R286W
T1 construct: TwinStrep-SUMO (N, cleaved yes); made in house; host or cells: E. coli BL21
T1 sequence (P0A9A6 whole entry): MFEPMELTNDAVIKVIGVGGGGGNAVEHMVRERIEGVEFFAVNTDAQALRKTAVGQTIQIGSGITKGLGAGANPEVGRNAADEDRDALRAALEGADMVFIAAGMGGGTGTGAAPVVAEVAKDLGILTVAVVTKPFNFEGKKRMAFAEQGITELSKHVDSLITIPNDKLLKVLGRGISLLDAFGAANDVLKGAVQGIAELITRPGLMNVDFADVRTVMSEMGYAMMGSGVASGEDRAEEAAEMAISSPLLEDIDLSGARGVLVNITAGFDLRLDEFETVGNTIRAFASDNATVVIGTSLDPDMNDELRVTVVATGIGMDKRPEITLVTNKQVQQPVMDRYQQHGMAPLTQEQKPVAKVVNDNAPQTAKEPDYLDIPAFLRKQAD
T1 sequence (P0ABH0 whole entry R286W): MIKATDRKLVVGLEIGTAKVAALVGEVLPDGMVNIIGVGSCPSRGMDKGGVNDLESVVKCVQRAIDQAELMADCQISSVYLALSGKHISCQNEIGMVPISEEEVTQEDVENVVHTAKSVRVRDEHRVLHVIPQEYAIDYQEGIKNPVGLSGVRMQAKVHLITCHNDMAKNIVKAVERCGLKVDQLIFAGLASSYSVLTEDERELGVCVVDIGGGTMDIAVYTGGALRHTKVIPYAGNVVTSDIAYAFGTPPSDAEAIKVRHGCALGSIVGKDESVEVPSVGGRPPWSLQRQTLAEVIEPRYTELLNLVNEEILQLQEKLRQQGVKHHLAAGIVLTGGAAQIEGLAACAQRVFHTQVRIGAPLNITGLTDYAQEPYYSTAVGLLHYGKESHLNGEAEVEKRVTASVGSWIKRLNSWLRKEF
Protocol: By fitting an exponential function to the increase of the PCC with time, we were able to extract the corresponding recruitment rate (Fig. 2f, g).
(§1) Subsequently, the chamber was washed 6x with reaction buffer, to remove bulk peptide. To visualize colocalization with either FtsZ or FtsA, either a mix of FtsA and Alexa488-FtsZ or Cy3-FtsA and FtsZ was added. […] The time-lapse videos were recorded for 10 min after the addition, with one frame per 2 s.

FtsZ-FtsA WT filaments = biological target: T2, FtsZ-FtsA WT filaments (Escherichia coli, UniProt P0A9A6+P0ABH0); format: binding, E. coli; conditions: 0.2 µM FtsA WT, 1.25 µM FtsZ, […] Tris-NTA; p-value 0.03
T2 construct: TwinStrep-SUMO (N, cleaved yes); made in house; host or cells: E. coli BL21
T2 sequence (P0A9A6 whole entry): as the sequence (P0A9A6 whole entry) above
T2 sequence (P0ABH0 whole entry): as the sequence (P0ABH0 whole entry R286W) above, with W286R counted along it
Text: Single molecule time lapses were acquired every 32 or 51 ms, with exposure times of 30 and 50 ms, respectively.
Single-molecule experiments with FtsNcytowere tracked using the TrackMate plugin from ImageJ[43]. Non-moving particles and short tracks (below 1 s) were filtered out and the data exported as.xml files. […] The packing coefficient is defined as the length of the trajectory in a short time window and the surface area that it occupies. […] This approach is adapted from Renner et al. and implemented here as an easy-to-use Python script. The packing coefficient is computed for each time point as:1 p=∑ii+n−1xi+1−xi^2−yi+1−yi^2/Si^2 Where xi,yi are the coordinates at time i, xi+1, yi+1 are the coordinates at time i+1, n is the length of the time window, and Si is the surface area of the convex hull of the trajectory segment between time points i and i+n. Periods of confinement are identified by setting a threshold corresponding to a certain confinement area size, since p scales with the size of the confinement area. Then it is possible to calculate the frequency and duration of confinement periods and to localize them in space. Each position will have a characteristic p, considering the behaviour of the following n positions. This approach overcomes the limitations of using MSD calculation, which overlooks transient confinement periods. […]

FtsZ [1] = tested on: FtsZ;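 as to effect on FtsZ pattern reorganization dynamics: FtsZ filament patterns imaged by time-lapse TIRF microscopy, one frame per 2 s, with ATP and GTP, Pearson correlation of first frame versus later frames, monoexponential fit, slower decay means persistent structures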
Protocol: as §1
Time-lapse videos were first intensity-corrected and contrast-enhanced to avoid bleaching effects and simplify subsequent analysis. To remove contributions of X–Y drift, the videos were processed with the Linear Stack Alignment with SIFT plugin. Proper alignment was checked with the 3TP align plugin (J. A. Parker; Beth Israel Deaconess Medical Center, Boston). Subsequently, regions of interest (ROIs) in the center of the stacks were chosen for colocalization analysis. The Pearson’s correlation coefficient (PCC) was quantified with the Image CorrelationJ 1o plugin. To extract information about the relative ratio of FtsZ/FtsA molecules (slope of linear regression), we also used the Image CorrelationJ 1o plugin. As an output, the plugin provides a scatterplot of FtsZ vs FtsA intensities, to which we fitted a linear slope y=k⋅x+d , where k is the slope and d the offset. The slope was used as an estimate for the ratio of FtsA molecules below FtsZ filaments.

FtsZ [2] = tested on: FtsZ; remark: listed apart in the source;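 as to effect on FtsZ pattern reorganization dynamics: FtsZ filament patterns imaged by time-lapse TIRF microscopy, one frame per 2 s, with ATP and GTP, Pearson correlation of first frame versus later frames, monoexponential fit, slower decay means persistent structures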
Protocol: as §1
Treadmilling dynamics, were quantified using an automated image analysis protocol previously developed by our group. To visualize colocalization of the co-treadmilling FtsZ & FtsA filaments, we used dual-colour videos obtained at an acquisition rate of one frame per 2 s. The two channels were aligned using FIJI’s 3TP align plugin. Both channels were then subjected to the image subtraction protocol and colocalization was measured as described above.

FtsZ [3] = conditions: either version of FtsA
Protocol: Additionally, the reaction chamber contained 4 mM ATP and 4 mM GTP, as well as a scavenging system to minimize photobleaching effects: 30 mM d-glucose, 0.050 mg ml^−1 Glucose Oxidase, 0.016 mg ml^−1 Catalase, 1 mM DTT and 1 mM Trolox. Prior addition of all components a corresponding buffer volume was removed from the chamber to obtain a total reaction volume of 100 µl. The dynamic protein pattern was monitored by time-lapse TIRF microscopy at one frame per 2 s and 50 ms exposure time.
To measure reorganization dynamics of FtsZ filaments, we used a temporal correlation analysis based on the Image CorrelationJ 1o plugin. We quantified the PCC between the first frame to subsequent frames with increasing time lag (∆t). The decrease in the PCC was plotted against ∆t to obtain autocorrelation curves. Slower decay indicates more persistent structures. The rates of decay were extracted by fitting monoexponential decay to the autocorrelation curves y=a⋅e^−b⋅t+k , where a is the starting point, b is the decay rate and k is the final offset. The half time of the monoexponential decay was calculated via the decay rate.

[4] = FtsA R286W, even at concentrations above 0.4 µM

CSCC[C@H](NC(=O)[C@@H](N)CS)C(=O)N[C@@H](C)C(=O)N[C@@H](CCC(N)=O)C(=O)N[C@@H](CCCNC(=N)N)C(=O)N[C@@H](CC(=O)O)C(=O)N[C@@H](Cc1ccc(O)cc1)C(=O)N[C@H](C(=O)N[C@@H](CCCNC(=N)N)C(=O)N[C@@H](CCCNC(=N)N)C(=O)N[C@@H](CO)C(=O)N[C@@H](CCC(N)=O)C(=O)N1CCC[C@H]1C(=O)N[C@@H](C)C(=O)N1CCC[C@H]1C(=O)N[C@@H](CO)C(=O)N[C@@H](CCCNC(=N)N)C(=O)N[C@@H](CCCNC(=N)N)C(=O)N[C@@H](CCCCN)C(=O)N[C@@H](CCCCN)C(=O)N[C@@H](CO)C(=O)N[C@H](C(=O)N[C@@H](CO)C(=O)N[C@@H](CCCNC(=N)N)C(=O)N[C@@H](CCCCN)C(=O)N[C@@H](CCCCN)C(=O)N[C@@H](CCC(N)=O)C(=O)N[C@@H](CCCNC(=N)N)C(=O)N[C@@H](CC(N)=O)C(=O)N[C@@H](CC(C)C)C(=O)N1CCC[C@H]1C(=O)N[C@@H](C)C(=O)N[C@H](C(=O)N[C@@H](Cc1c[nH]cn1)C(=O)N[C@@H](Cc1c[nH]cn1)C(=O)N[C@@H](Cc1c[nH]cn1)C(=O)N[C@@H](Cc1c[nH]cn1)C(=O)N[C@@H](Cc1c[nH]cn1)C(=O)N[C@@H](Cc1c[nH]cn1)C(=O)O)C(C)C)[C@@H](C)O)C(C)C [FtsNcyto]
FtsNcyto enrichment saturated within (FtsA/Z co-filaments): ≤ 1 min | frequency of transient confinement (FtsZ-FtsA WT filaments): 57.99 ± 7.29% | PCC FtsNcyto/FtsZ (FtsZ [1]; 0.4 µM FtsA R286W, […] Tris-NTA, 1.25 µM FtsZ, p-value 4.92 × 10^−4): 0.70 ± 0.02 | PCC FtsNcyto/FtsZ (FtsZ [1]; 0.4 µM FtsA WT, […] Tris-NTA, 1.25 µM FtsZ, p-value 4.92 × 10^−4): 0.30 ± 0.05 | PCC FtsNcyto/FtsZ (FtsZ [1]; [4]): > 0.6 | PCCdiff FtsNcyto/FtsZ (FtsZ [2]; 0.4 µM FtsA R286W, […] Tris-NTA, 1.25 µM FtsZ, p-value 3.79 × 10^−3): 0.47 ± 0.05 | PCCdiff FtsNcyto/FtsZ (FtsZ [2]; 0.4 µM FtsA WT, […] Tris-NTA, 1.25 µM FtsZ, p-value 3.79 × 10^−3): 0.17 ± 0.04 | PCCdiff FtsNcyto/FtsZ (FtsZ [2]; [4]): > 0.6 | effect on FtsZ pattern reorganization dynamics (FtsZ [3]): significantly slows down
